Source: patent publication US20240261398A1 (priority 2018, published 2024)
Where a name gives a salt, the structure may show the parent alone. Read-outs that look alike come from different tables or passages of the source.

Tests used:
[1] = tested on: A/California/07/2009 virus (H1N1; CA07); set-up: species or system BALB/c mice; details: mouse, in vivo
[2] = tested on: A/California/07/2009 virus (H1N1; CA07); set-up: species or system BALB/c mice; details: mouse, in vivo; remark: listed apart in the source
influenza virus = format: in vivo, mice
Ebola GP protein = format: in vivo, BALB/c mice; details: for Mean value of antibody titers, Vaccine + compound: Ebola VLP 1 μg/dose + compound, i.m. twice, serum two weeks after second immunization, mean of 4 mice; for Antibody titer ratio (a): [VLP + candidate compound]/[VLP + AddaVax]; for Mean value of antibody titers, Only compound (c): compound alone, mice treated as in the influenza adjuvant screening
[3] = nasal immunization with vaccine + compound, 100 μg/dose (saponin 10 μg/dose), Day 0, 14, 28

## C[C@@H]1O[C@@H](O[C@H]2[C@H](Oc3cc(O)c4c(c3)O[C@H](c3ccc(O)cc3)CC4=O)O[C@H](CO)[C@@H](O)[C@@H]2O)[C@H](O)[C@H](O)[C@H]1O [Naringin]
[1]
  Antibody titers in primary screening, Vaccine + compound: 2133.33
[2]
  Antibody titers in secondary screening, Vaccine + compound: 2240

## O=C([O-])[C@H](O)[C@@H](O)[C@H](O)[C@H](O)CO.O=C([O-])[C@H](O)[C@@H](O)[C@H](O)[C@H](O)CO.[Fe+2]
[1]
  Antibody titers in primary screening, Vaccine + compound: 853.33
  Relative ratio of antibody titer to alum (compound/alum), primary screening: 0.76
[2]
  Antibody titers in secondary screening, Vaccine + compound: 3040
  Relative ratio of antibody titer to alum (compound/alum), secondary screening: 1.90

## O=C([O-])[C@H](O)[C@@H](O)[C@H](O)[C@H](O)CO.[Na+]
[2]
  Mean value of antibody titers, Only compound: <10
  Mean value of antibody titers, Vaccine + compound: 1600.00
  Relative ratio of antibody titer to alum (Compound/alum): 1.00

## [Cl-].[K+] [Potassium chloride]
[2]
  Mean value of antibody titers, Only compound: <10
  Mean value of antibody titers, Vaccine + compound: 2920.00
  Relative ratio of antibody titer to alum (Compound/alum): 1.83

## CC1=C(/C=C/C(C)=C/C=C/C(C)=C/C=C/C=C(C)/C=C/C=C(C)/C=C/C2=C(C)CCCC2(C)C)C(C)(C)CCC1 [β-Carotene]
[1]
  Antibody titers in primary screening, Vaccine + compound: 960.00
[2]
  Antibody titers in secondary screening, Vaccine + compound: 1120

## CC=Cc1ccc(O)c(OC)c1 [Isoeugenol]
[1]
  Antibody titers in primary screening, Vaccine + compound: 2986.67
[2]
  Antibody titers in secondary screening, Vaccine + compound: 140

## [Br-].[Na+] [Sodium bromide]
[2]
  Mean value of antibody titers, Only compound: <10
  Mean value of antibody titers, Vaccine + compound: 970.00
  Relative ratio of antibody titer to alum (Compound/alum): 0.87

## O=S([O-])[O-].[Na+].[Na+] [Sodium sulfite]
[2]
  Mean value of antibody titers, Only compound: <10
  Mean value of antibody titers, Vaccine + compound: 2080.00
  Relative ratio of antibody titer to alum (Compound/alum): 1.30
  virus-specific antibody titers compared with the alum adjuvant: equal to or higher than the alum adjuvant did

## O.O=P([O-])([O-])OCC(O)CO.[Ca+2] (stereo not drawn)
[1]
  Antibody titers in primary screening, Vaccine + compound: 1920.00
  Relative ratio of antibody titer to alum (compound/alum), primary screening: 1.71
[2]
  Antibody titers in secondary screening, Vaccine + compound: 4800
  Relative ratio of antibody titer to alum (compound/alum), secondary screening: 3.33
Influenza virus; mouse, in vivo
  Antibody titers (IgG): 261.25

## CCN(Cc1cccc(S(=O)(=O)[O-])c1)c1ccc(C(=C2C=CC(=[N+](CC)Cc3cccc(S(=O)(=O)[O-])c3)C=C2)c2ccccc2S(=O)(=O)[O-])cc1.[Na+].[Na+]
[1]
  Antibody titers in primary screening, Vaccine + compound: 1333.33
  Relative ratio of antibody titer to alum (compound/alum), primary screening: 0.69
[2]
  Antibody titers in secondary screening, Vaccine + compound: 990
  Relative ratio of antibody titer to alum (compound/alum), secondary screening: 1.65

## CC(CC=O)CCCC(C)(C)O (stereo not drawn) [Hydroxycitronellal]
[1]
  Antibody titers in primary screening, Vaccine + compound: 2773.33
[2]
  Antibody titers in secondary screening, Vaccine + compound: 1280

## CC1(C)[C@@H](O[C@H]2O[C@H](C(=O)O)[C@@H](O)[C@H](O)[C@H]2O[C@@H]2O[C@H](C(=O)O)[C@@H](O)[C@H](O)[C@H]2O)CC[C@]2(C)[C@H]3C(=O)C=C4[C@@H]5C[C@@](C)(C(=O)O)CC[C@]5(C)CC[C@@]4(C)[C@]3(C)CC[C@@H]12
[1]
  Antibody titers in primary screening, Vaccine + compound: 5973.33
[2]
  Antibody titers in secondary screening, Vaccine + compound: 2560

## COC(=O)[C@H](Cc1ccccc1)NC(=O)[C@H](CC(=O)O)NCCC(C)(C)C [Neotame]
[1]
  Antibody titers in primary screening, Vaccine + compound: 2560.00
  Relative ratio of antibody titer to alum (compound/alum), primary screening: 2.00
[2]
  Antibody titers in secondary screening, Vaccine + compound: 720
  Relative ratio of antibody titer to alum (compound/alum), secondary screening: 1.00
  virus-specific antibody titers compared with the alum adjuvant: equal to or higher than the alum adjuvant did

## COC(=O)c1ccccc1N [Methyl Anthranilate]
[1]
  Antibody titers in primary screening, Vaccine + compound: 693.33
[2]
  Antibody titers in secondary screening, Vaccine + compound: 2240

## CCO [Ethanol]
[2]
  Mean value of antibody titers, Only compound: <10
  Mean value of antibody titers, Vaccine + compound: 400.00
  Relative ratio of antibody titer to alum (Compound/alum): 0.56
Ebola GP protein
  Mean value of antibody titers, Vaccine + compound: 140.00
  Antibody titer ratio (a): 0.23
  Mean value of antibody titers, Only compound (c): <10

## CC(C)=CCCC(C)CCO (racemic) [(+/−)-Citronellol]
[1]
  Antibody titers in primary screening, Vaccine + compound: 960.00
[2]
  Antibody titers in secondary screening, Vaccine + compound: 260

## CC(C)=CCC/C(C)=C/COC=O [Geranyl Formate]
[1]
  Antibody titers in primary screening, Vaccine + compound: 2560.00
[2]
  Antibody titers in secondary screening, Vaccine + compound: 960

## Cn1cnc2c1c(=O)[nH]c(=O)n2C [Theobromine]
[1]
  Antibody titers in primary screening, Vaccine + compound: 1333.33
[2]
  Antibody titers in secondary screening, Vaccine + compound: 1440

## c1ccc2cnccc2c1 [Isoquinoline]
[1]
  Antibody titers in primary screening, Vaccine + compound: 1493.33
[2]
  Antibody titers in secondary screening, Vaccine + compound: 1200

## COc1ccc([C@@H]2CC(=O)c3c(O)cc(O[C@@H]4O[C@H](CO[C@@H]5O[C@@H](C)[C@H](O)[C@@H](O)[C@H]5O)[C@@H](O)[C@H](O)[C@H]4O)cc3O2)cc1O [Hesperidin]
[1]
  Antibody titers in primary screening, Vaccine + compound: 3840.00
  Relative ratio of antibody titer to alum (compound/alum), primary screening: 1.13
[2]
  Antibody titers in secondary screening, Vaccine + compound: 2240
  Relative ratio of antibody titer to alum (compound/alum), secondary screening: 4.00

## CC(/C=C/C=C(\C)C(=O)O[C@@H]1O[C@H](CO[C@@H]2O[C@H](CO)[C@@H](O)[C@H](O)[C@H]2O)[C@@H](O)[C@H](O)[C@H]1O)=C\C=C\C=C(C)\C=C\C=C(/C)C(=O)O[C@@H]1O[C@H](CO[C@@H]2O[C@H](CO)[C@@H](O)[C@H](O)[C@H]2O)[C@@H](O)[C@H](O)[C@H]1O [Crocin]
[1]
  Antibody titers in primary screening, Vaccine + compound: 1066.67
[2]
  Antibody titers in secondary screening, Vaccine + compound: 480

## Cc1cc2nc3c(=O)[nH]c(=O)nc-3n(C[C@H](O)[C@H](O)[C@H](O)CO)c2cc1C [Riboflavin]
[1]
  Antibody titers in primary screening, Vaccine + compound: 2560.00
[2]
  Antibody titers in secondary screening, Vaccine + compound: 2240
Influenza virus; [3]
  Antibody titers (IgG): 880

## O=S([O-])O.[Na+]
[2]
  Mean value of antibody titers, Only compound: <10
  Mean value of antibody titers, Vaccine + compound: 730.00
  Relative ratio of antibody titer to alum (Compound/alum): 0.55

## OC[C@H]1O[C@@H]2O[C@H]3[C@H](O)[C@@H](O)[C@@H](O[C@H]4[C@H](O)[C@@H](O)[C@@H](O[C@H]5[C@H](O)[C@@H](O)[C@@H](O[C@H]6[C@H](O)[C@@H](O)[C@@H](O[C@H]7[C@H](O)[C@@H](O)[C@@H](O[C@H]8[C@H](O)[C@@H](O)[C@@H](O[C@H]1[C@H](O)[C@H]2O)O[C@@H]8CO)O[C@@H]7CO)O[C@@H]6CO)O[C@@H]5CO)O[C@@H]4CO)O[C@@H]3CO [β-Cyclodextrin]
[1]
  Antibody titers in primary screening, Vaccine + compound: 373.33
  Relative ratio of antibody titer to alum (compound/alum), primary screening: 0.22
[2]
  Antibody titers in secondary screening, Vaccine + compound: 1440
  Relative ratio of antibody titer to alum (compound/alum), secondary screening: 0.90

## CC(C)C1=CC2=CC[C@@H]3[C@](C)(CCC[C@@]3(C)C(=O)O)[C@H]2CC1 [Abietic acid]
[1]
  Antibody titers in primary screening, Vaccine + compound: 533.33
[2]
  Antibody titers in secondary screening, Vaccine + compound: 1280

## CC(=O)[O-].[Na+] [Sodium acetate]
[2]
  Mean value of antibody titers, Only compound: <10
  Mean value of antibody titers, Vaccine + compound: 740.00
  Relative ratio of antibody titer to alum (Compound/alum): 0.66

## CCN(Cc1cccc(S(=O)(=O)[O-])c1)c1ccc(C(=C2C=CC(=[N+](CC)Cc3cccc(S(=O)(=O)[O-])c3)C=C2)c2ccc(O)cc2S(=O)(=O)[O-])cc1.[Na+].[Na+]
[1]
  Antibody titers in primary screening, Vaccine + compound: 2133.33
  Relative ratio of antibody titer to alum (compound/alum), primary screening: 1.00
[2]
  Antibody titers in secondary screening, Vaccine + compound: 440
  Relative ratio of antibody titer to alum (compound/alum), secondary screening: 0.73

## O=S([O-])([O-])=S.[Na+].[Na+] [Sodium thiosulfate]
[2]
  Mean value of antibody titers, Only compound: <10
  Mean value of antibody titers, Vaccine + compound: 1320.00
  Relative ratio of antibody titer to alum (Compound/alum): 1.00

## O=C([O-])c1ccccc1.[Na+] [Sodium benzoate]
[2]
  Mean value of antibody titers, Only compound: <10
  Mean value of antibody titers, Vaccine + compound: 1600.00
  Relative ratio of antibody titer to alum (Compound/alum): 1.21
  virus-specific antibody titers compared with the alum adjuvant: equal to or higher than the alum adjuvant did

## C[C@@H]1O[C@@H](OC[C@H]2O[C@@H](Oc3c(-c4ccc(O)c(O)c4)oc4cc(O)cc(O)c4c3=O)[C@H](O)[C@@H](O)[C@@H]2O)[C@H](O)[C@H](O)[C@H]1O [Rutin]
[1]
  Antibody titers in primary screening, Vaccine + compound: 2560.00
[2]
  Antibody titers in secondary screening, Vaccine + compound: 1320

## C[C@@H]1O[C@@H](OC[C@H]2O[C@@H](Oc3c(-c4ccc(O)c(O)c4)oc4cc(O)cc(O)c4c3=O)[C@H](O)[C@@H](O)[C@@H]2O)[C@H](O)[C@H](O)[C@H]1O [Rutin hydrate]
[1]; hydrate
  Antibody titers in primary screening, Vaccine + compound: 1280.00
[2]; hydrate
  Antibody titers in secondary screening, Vaccine + compound: 720
Influenza virus; [3]
  Antibody titers (IgG): 280

## O=C1/C(=C2\Nc3ccc(S(=O)(=O)[O-])cc3C2=O)Nc2ccc(S(=O)(=O)[O-])cc21.[Na+].[Na+] [Indigo Carmine]
[1]
  Antibody titers in primary screening, Vaccine + compound: 1280.00
  Relative ratio of antibody titer to alum (compound/alum), primary screening: 1.50
[2]
  Antibody titers in secondary screening, Vaccine + compound: 485
  Relative ratio of antibody titer to alum (compound/alum), secondary screening: 0.81

## CC(C)=CCC[C@@H](C)CC=O
[1]
  Antibody titers in primary screening, Vaccine + compound: 333.33
[2]
  Antibody titers in secondary screening, Vaccine + compound: 35

## OC[C@@H](O)[C@H](O)[C@@H](O)CO [Xylitol]
[2]
  Mean value of antibody titers, Only compound: <10
  Mean value of antibody titers, Vaccine + compound: 560.00
  Relative ratio of antibody titer to alum (Compound/alum): 0.35

## [O]=[Zn] [Zinc oxide]
Ebola GP protein
  Mean value of antibody titers, Vaccine + compound: 400.00
  Antibody titer ratio (a): 0.67
  Mean value of antibody titers, Only compound (c): <10

## Cc1c(C(=O)O)c(O)cc2c1C(=O)c1c(O)c([C@@H]3O[C@H](CO)[C@@H](O)[C@H](O)[C@H]3O)c(O)c(O)c1C2=O [Carminic acid]
[1]
  Antibody titers in primary screening, Vaccine + compound: 746.67
[2]
  Antibody titers in secondary screening, Vaccine + compound: 960
